Here are results for 7 compounds from patent publication US20040116297A1, “Use of polyprenol and its derivatives for facilitating growth of plants” (priority 2001, published 2004).

In one experiment the test system is corn. Put plainly: Effect on growth of corn. It is filed as in vivo. As to conditions: for Early plant height / Fresh weight / Tiller number: corn seeds immersed 2 hrs at 100 ppm, after 60 days; for Rate of increase of early plant height / Rate of increase of fresh weight / Rate of increase of tiller number: corn, 100 ppm, vs control. As for the experimental part: [Worded in the source for another target; used here, by the source, with some conditions changed.] (§1) Then, the treated seeds were dried for 24 hrs at 25° C. Round pots of 25 cm in diameter (7 L capacity) were filled with soil for horticulture, and 50 pots (2 seeds per pot) were sown. After 60 days at about 25° C., the crop growth was evaluated by rate of emergence and early plant height. […] As a control, bean seeds which were not immersed in the polyprenol preparation were used.

In a further experiment the test system is rice. As to conditions: depending on the plant breeding; cited from earlier work.
For the next experiment, the system named is cabbage. The settings on record: cited from earlier work.
In the next experiment the test system is radish. As to conditions: cited from earlier work.
The next experiment relates to bean. Nature of the experiment: Effect on growth of bean. It counts as in vivo. The method, then: 100 g of bean seeds were immersed in a 100 ml solution containing the polyprenol preparation formulated in Example 3 at a concentration of 100 ppm, for 1 hr. Then, the treated seeds were dried for 24 hrs at 25° C. Round pots of 25 cm in diameter (7 L capacity) were filled with soil for horticulture, and 50 pots (2 seeds per pot) were sown. After 60 days at about 25° C., the crop growth was evaluated by rate of emergence and early plant height. The test was repeated 3 times, and the average values are represented in Table 7. As a control, bean seeds which were not immersed in the polyprenol preparation were used.
In example 4, the compound having chloride group instead of hydroxyl group can be synthesized. The compound was evaluated on effect on crop growth. 100 g of bean seeds were immersed in a 100 ml solution containing the polyprenol preparation formulated in Example 4 at a concentration of 100 ppm, for 1 hr. Then, the treated seeds were dried for 24 hrs. Round pots of 25 cm in diameter (7 L capacity) were filled with soil for horticulture, and 50 pots (2 seeds per pot) were sown. After 60 days, the crop growth was evaluated. The test was repeated 3 times, and the average values are represented in Table 14. As a control, bean seeds which were not immersed in the polyprenol preparation were used.
100 g of bean seeds were immersed in a 100 ml solution containing the polyprenol preparation formulated in Example 5 at a concentration of 100 ppm, for 1 hr. Then, the treated seeds were dried for 24 hrs. Round pots of 25 cm in diameter (7 L capacity) were filled with soil for horticulture, and 50 pots (2 seeds per pot) were sown. After 60 days, the crop growth was evaluated. The test was repeated 3 times, and the average values are represented in Table 16. As a control, bean seeds which were not immersed in the polyprenol preparation were used.

Another experiment has as its system red pepper. Nature of the experiment: Effect on growth of red pepper. It counts as in vivo. As to conditions: 100 ppm. As for the experimental part: [Worded in the source for another target; used here, by the source, with some conditions changed.] as §1
Where [1] appears, read: bean seeds immersed 1 hr at 100 ppm, after 60 days.
Where [2] appears, read: foliage treatment after growing for 20 days.

Polyprenyl Methyl Sulfide [Example 6-5]: in the experiment with corn, the Early plant height was found to be 108.9 cm, the Fresh weight came out at 65.7 g, the Tiller number was 8.5 and the “Rate of increase of early plant height” value is reported as 0.2%. Further, in the experiment with corn, the “Rate of increase of fresh weight” value is 26.3% and the “Rate of increase of tiller number” value is reported as 3.6%.
Consider `CCCCCCCCCCCCCCCCCCCCCCCCCCCCCCO` [tricontanol], for which the Increase of yield in the experiment on rice is listed as 14.8-41%; in the experiment with cabbage, 83%; in the experiment on radish, 108.4%.
Take Polyprenyl Methyl Ether [Example 6-4]: in the experiment on corn, the Early plant height is on record as 110.1 cm, the Fresh weight was 60.3 g, the Tiller number is 8.7 and the “Rate of increase of early plant height” value worked out at 1.3%. For the same compound, in the experiment on corn, the “Rate of increase of fresh weight” value came out at 15.9% and the “Rate of increase of tiller number” value is reported as 6.0%.
Turning to “polyprepyl dimethyl sulfonium bromide [Example 6-7]”, in the experiment on corn, the Early plant height was 109.5 cm, the Fresh weight came out at 70.1 g, the Tiller number is 9.2 and the “Rate of increase of early plant height” value stood at 0.8%. Also, in the experiment with corn, the “Rate of increase of fresh weight” value amounted to 34.8% and the “Rate of increase of tiller number” value amounted to 12.1%.
In the experiment on bean (setting [1]), “Polyprenol of Formula I, in which m is 18 [Example 4]” gave an Early plant height of 68.2 cm, a No. of pods of 35.4 and a Rate of emergence of 55.7%. In addition, the “Increase of all factors tested (early plant height, rate of emergence, pod number)” value with bean (bean, 100 ppm, summary statement) is given as “more than 7%”. In addition, in the experiment on bean (bean, 100 ppm, vs control), the “Rate of increase of No. of pods” value stood at 17.2%, the “Rate of increase of early plant height” value was 7.74% and the “Rate of increase of rate of emergence” value is listed as 7.32%. In the experiment on red pepper (setting [2]), this compound showed an Early plant length of 70.5 cm, a Flower number of 8.4 and a Trunk diameter of 8.5 mm. In addition, in the experiment on red pepper (vs control), the “Rate of increase of early plant length” value came out at 11.7%, the “Rate of increase of flower number” value is recorded as 10.5% and the “Rate of increase of trunk diameter” value turned out to be 1.2%.
For the compound “polyprenyl ethyl carbonate [Example 6-6]”, in the experiment with corn, the Early plant height is recorded as 109.6 cm, the Fresh weight is reported as 61.3 g, the Tiller number is given as 8.4 and the “Rate of increase of early plant height” value worked out at 0.9%. Also, in the experiment with corn, the “Rate of increase of fresh weight” value came to 17.8% and the “Rate of increase of tiller number” value was found to be 2.4%.
On to Polyprenyl Stearate [Example 6-3], for which, in the experiment on corn, the Early plant height came to 109.1 cm, the Fresh weight amounted to 68.0 g, the Tiller number came out at 8.6 and the “Rate of increase of early plant height” value is on record as 0.4%. In the experiment with corn, the “Rate of increase of fresh weight” value stood at 30.7% and the “Rate of increase of tiller number” value worked out at 4.8%.
